Source: article PMC10663924 (Saudi Pharmaceutical Journal : SPJ, 2023)

Columns and labels:
[1] = test system: MCF7 cells; test: Scratch; type: cell-based
[2] = biological target: Human EGFR (Homo sapiens, UniProt P00533); test: In vitro multikinase assay
[3] = test system: Vero cell line; test: MTT safety assay, Vero normal cells; type: cell-based; settings: Chlorocebus sabaeus, read-out: IC50 against normal cell line (Vero)
[4] = test system: IL-2; test: qRT-PCR of IL-2 in MCF7 cells; type: cell-based; settings: treated MCF7 cells vs control
[5] = test system: TNF-α; test: qRT-PCR of TNF-α in MCF7 cells; type: cell-based; settings: treated MCF7 cells vs control
[6] = test system: MCF7 cells; test: Annexin V / PI flow cytometry apoptosis analysis; type: cell-based; settings: 30.95 µM
[7] = test system: MCF7 cell lines; test: cells; type: cell-based; settings: Homo sapiens, MCF7, read-out: IC50 proliferation of MCF7 (abstract)
[8] = test system: BALB/c male mice; test: Determination of LD50 in mice; type: in vivo; settings: mice, 1 and 3 gm/kg single dose orally, 24 h
[9] = Determination of LD50 in mice; type: in vivo; settings: male, BALB/c, mouse, in vivo, po
[10] = test system: HepG2 cell lines; test: cells; type: cell-based; settings: Homo sapiens, HepG2, read-out: IC50 proliferation of HepG2 (abstract)
[11] = Liver function test; settings: mice; for ALT level: control 25.2 ± 1.2; for AST level: control 29.1 ± 1.1
[12] = biological target: human VEGFR-2 (Homo sapiens, UniProt P35968); test: biochemical
[13] = biological target: Human PDGFRβ (Homo sapiens, UniProt P09619); test: In vitro multikinase assay
[14] = 100 mg/kg oral single dose (group II)
[15] = 200 mg/kg oral single dose (group III)

Chain of Human PDGFRβ (P09619 33-1106): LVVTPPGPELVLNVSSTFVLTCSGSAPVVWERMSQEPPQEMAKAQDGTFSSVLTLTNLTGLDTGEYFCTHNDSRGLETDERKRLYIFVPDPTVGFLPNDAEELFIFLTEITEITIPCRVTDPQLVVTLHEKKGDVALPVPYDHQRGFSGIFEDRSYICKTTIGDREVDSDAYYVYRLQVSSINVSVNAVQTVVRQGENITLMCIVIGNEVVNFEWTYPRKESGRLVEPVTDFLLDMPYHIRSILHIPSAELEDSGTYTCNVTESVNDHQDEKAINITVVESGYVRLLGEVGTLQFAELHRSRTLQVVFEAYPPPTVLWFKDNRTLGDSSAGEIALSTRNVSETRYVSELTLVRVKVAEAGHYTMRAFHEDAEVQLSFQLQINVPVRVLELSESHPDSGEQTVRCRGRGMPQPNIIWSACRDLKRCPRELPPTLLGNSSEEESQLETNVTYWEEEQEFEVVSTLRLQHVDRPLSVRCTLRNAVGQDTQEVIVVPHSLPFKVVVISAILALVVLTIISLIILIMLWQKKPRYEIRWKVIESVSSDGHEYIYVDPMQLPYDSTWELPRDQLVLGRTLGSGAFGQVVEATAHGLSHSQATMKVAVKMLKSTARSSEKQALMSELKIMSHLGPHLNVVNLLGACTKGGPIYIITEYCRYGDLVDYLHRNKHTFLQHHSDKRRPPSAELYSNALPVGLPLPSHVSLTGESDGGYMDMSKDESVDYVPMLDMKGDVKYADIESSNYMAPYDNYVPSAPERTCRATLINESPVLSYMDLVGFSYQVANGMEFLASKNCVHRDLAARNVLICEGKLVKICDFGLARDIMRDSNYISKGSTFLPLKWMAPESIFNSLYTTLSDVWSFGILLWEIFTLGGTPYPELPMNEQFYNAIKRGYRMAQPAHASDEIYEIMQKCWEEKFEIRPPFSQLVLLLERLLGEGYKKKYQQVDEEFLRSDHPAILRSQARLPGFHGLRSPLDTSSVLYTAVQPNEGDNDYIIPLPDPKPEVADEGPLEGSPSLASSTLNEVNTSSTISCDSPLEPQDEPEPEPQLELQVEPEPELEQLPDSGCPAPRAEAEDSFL
Chain of Human EGFR (P00533 25-1210): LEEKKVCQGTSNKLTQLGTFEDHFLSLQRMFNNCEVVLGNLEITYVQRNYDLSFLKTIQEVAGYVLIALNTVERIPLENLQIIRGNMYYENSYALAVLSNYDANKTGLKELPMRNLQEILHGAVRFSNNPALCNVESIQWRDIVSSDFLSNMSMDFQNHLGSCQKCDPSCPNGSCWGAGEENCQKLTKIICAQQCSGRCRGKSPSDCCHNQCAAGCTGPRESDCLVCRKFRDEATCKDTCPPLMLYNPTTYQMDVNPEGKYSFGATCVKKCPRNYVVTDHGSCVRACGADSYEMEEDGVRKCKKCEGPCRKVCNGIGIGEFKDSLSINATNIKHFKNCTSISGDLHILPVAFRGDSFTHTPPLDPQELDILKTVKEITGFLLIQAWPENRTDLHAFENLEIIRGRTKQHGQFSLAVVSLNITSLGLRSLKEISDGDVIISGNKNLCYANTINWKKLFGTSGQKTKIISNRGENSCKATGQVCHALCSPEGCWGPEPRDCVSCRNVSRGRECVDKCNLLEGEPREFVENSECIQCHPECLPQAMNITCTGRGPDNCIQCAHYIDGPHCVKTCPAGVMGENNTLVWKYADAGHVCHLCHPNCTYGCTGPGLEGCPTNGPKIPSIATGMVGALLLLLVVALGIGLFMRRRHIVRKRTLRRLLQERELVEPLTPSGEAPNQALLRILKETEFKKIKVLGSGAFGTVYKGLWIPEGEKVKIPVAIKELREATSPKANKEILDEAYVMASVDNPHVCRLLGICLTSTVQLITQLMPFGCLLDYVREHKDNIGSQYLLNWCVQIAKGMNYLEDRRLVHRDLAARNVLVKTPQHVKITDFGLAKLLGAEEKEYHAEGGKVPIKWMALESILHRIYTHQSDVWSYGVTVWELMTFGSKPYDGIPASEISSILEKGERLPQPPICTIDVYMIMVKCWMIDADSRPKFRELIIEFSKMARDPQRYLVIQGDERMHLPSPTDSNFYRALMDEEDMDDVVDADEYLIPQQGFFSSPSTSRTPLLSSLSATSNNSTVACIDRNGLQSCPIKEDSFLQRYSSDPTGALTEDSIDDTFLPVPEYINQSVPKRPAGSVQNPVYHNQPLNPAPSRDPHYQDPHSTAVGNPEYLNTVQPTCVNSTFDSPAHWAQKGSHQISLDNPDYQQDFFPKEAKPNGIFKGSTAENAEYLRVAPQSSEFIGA
Chain of human VEGFR-2 (P35968 20-1356): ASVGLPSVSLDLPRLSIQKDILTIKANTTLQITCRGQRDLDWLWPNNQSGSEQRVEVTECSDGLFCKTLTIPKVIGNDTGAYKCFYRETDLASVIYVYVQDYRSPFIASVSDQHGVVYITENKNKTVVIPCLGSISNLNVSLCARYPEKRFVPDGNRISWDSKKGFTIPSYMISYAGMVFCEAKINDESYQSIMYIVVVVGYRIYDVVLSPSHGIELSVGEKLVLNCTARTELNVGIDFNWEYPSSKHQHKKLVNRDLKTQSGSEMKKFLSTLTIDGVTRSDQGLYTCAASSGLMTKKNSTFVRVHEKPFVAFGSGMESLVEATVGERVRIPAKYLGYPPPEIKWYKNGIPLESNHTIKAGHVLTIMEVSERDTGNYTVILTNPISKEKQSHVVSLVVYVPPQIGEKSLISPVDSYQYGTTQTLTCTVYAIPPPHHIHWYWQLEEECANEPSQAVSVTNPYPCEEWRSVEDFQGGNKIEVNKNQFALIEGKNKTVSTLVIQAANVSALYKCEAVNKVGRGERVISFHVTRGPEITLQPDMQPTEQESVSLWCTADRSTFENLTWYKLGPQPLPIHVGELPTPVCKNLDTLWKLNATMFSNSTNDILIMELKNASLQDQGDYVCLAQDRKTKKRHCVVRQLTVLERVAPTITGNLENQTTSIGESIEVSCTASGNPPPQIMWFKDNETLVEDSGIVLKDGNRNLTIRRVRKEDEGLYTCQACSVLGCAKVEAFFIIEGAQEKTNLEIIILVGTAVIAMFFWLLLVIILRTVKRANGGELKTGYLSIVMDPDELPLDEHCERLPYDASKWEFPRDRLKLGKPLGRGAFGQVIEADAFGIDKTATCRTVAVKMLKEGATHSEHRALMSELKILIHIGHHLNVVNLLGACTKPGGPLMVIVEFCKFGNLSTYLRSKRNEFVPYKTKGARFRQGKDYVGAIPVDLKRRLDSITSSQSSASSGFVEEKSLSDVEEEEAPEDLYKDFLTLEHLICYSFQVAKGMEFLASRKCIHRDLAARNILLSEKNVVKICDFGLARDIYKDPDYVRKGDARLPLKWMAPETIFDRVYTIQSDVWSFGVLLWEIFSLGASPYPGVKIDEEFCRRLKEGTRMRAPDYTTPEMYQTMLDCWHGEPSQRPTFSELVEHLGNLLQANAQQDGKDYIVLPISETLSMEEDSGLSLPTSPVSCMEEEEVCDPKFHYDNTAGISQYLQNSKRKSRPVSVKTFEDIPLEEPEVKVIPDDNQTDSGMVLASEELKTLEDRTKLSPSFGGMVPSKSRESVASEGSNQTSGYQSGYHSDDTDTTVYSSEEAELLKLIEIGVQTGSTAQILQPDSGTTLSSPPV

CC(=NNC(=O)c1cccc(C)c1)c1ccc(NC(=O)Cn2c(=O)c3c(ncn3C)n(C)c2=O)cc1 [T-1-MBHEPA, 2-(3,7-dimethyl-2,6-dioxo-2,3,6,7-tetrahydro-1H-purin-1-yl)-N-(4-(1-(2-(3-methylbenzoyl)hydrazono)ethyl)phenyl)acetamide]
Scratch area at 48 h ([1]; MCF7): 892.6667 | Scratch width at 48 h ([1]; MCF7): 891.751 | Area difference % ([1]; MCF7, 48 h): 71.333% | RM um ([1]; MCF7, 48 h): 1.485 um | Wound closure % um^2 ([1]; MCF7, 48 h): 7.399 % um^2 | Decrease of scratch width (healing and migration) within 48 h ([1]; MCF7, 48 h, untreated 65.9 %): 7.4% | IC50 [2]: 355 ± 14 nM | IC50 [3]: 80 µM | Reduction of IL-2 production [4]: 58% | Reduction of TNF-α production [5]: 33% | Apoptosis Early % [6]: 7.22% | Apoptosis Late % [6]: 2.72% | Apoptosis Total % [6]: 21.35% | Necrosis % [6]: 11.41% | IC50 [7]: 4.85 µM | Tolerability of the other doses [8]: well tolerated | LD50 at 24 h [9]: 5000 mg/kg | IC50 [10]: 4.61 µM | ALT level [11, 14]: 25.3 ± 2.1 | AST level [11, 14]: 29.2 ± 1.1 | ALT level [11, 15]: 28.9 ± 2.1 | AST level [11, 15]: 31.7 ± 1.8 | IC50 [12]: 121 ± 51 nM | IC50 [13]: 179 ± 9 nM
